Common to all, as to test: inhibition of tumour cell growth, NCI panel, 48 h
For assay [1], the system named is HL-60(TB) leukemia.
Assay [2] concerns MALME-3M melanoma.
Assay [3] relates to UACC-257 melanoma.
The subject of assay [4] is MDA-MB-231 breast.
In assay [5] the test system is OVCAR-3 ovarian.
The subject of assay [6] is SK-MEL-5 melanoma.
In assay [7] the test system is A549 NSCLC.
Assay [8] concerns HOP-92 NSCLC.
For assay [9], the system named is NCI/ADR-RES ovarian.
Assay [10] has as its system IGROV1 ovarian.

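Protocol summary: plate cells (96-well), add compound at 5 concentrations, incubate 48 h, interpolate endpoints linearly. Abbreviation: GI50, concentration required for 50% inhibition of growth. The concentration for full growth arrest is given as TGI.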 Bounds are passed on as bounds.

For `CCN1CCN(c2cc(C(=O)Nc3cccc(Nc4ccc5c(OC)cccc5n4)c3)cc(C(F)(F)F)c2)CC1`, the GI50 is 3.82 µM in [1]; 0.611 µM in assay [2]; 1.02 µM in [3]; 1.8 µM in assay [4]; 3.41 µM in assay [5]; 1.55 µM in assay [6]. The GI50 in assay [7] was 1.05 µM; in [8] it was 1.26 µM; in assay [9] it was 1.29 µM; in [10] it was 0.924 µM. In addition, the TGI is 11.4 µM in assay [1]; 1.33 µM in assay [2]; 3.6 µM in assay [3]; 6.47 µM in [4]; 9.04 µM in assay [5]; 5.54 µM in [6]. The TGI in assay [7] worked out at 5.28 µM; in [8] it was 4.66 µM; in [9] it was 6.69 µM; in assay [10], 5.23 µM.
`Cc1nn(C)c2ncnc(N/N=C/c3cccc(O)c3O)c12`: the GI50 in assay [1] is 0.322 µM; in [2], 0.52 µM; in [3], 1.38 µM; in [4] it was 0.486 µM; in assay [5], 0.356 µM; in assay [6] it was 0.433 µM. Moreover, the GI50 in [7] was 2.11 µM; in [8], 0.747 µM; in assay [9], 0.336 µM; in assay [10], 1.78 µM. For the same compound, the TGI is 1.43 µM in [1]; 4.7 µM in [2]; greater than 37.1 µM in [3]; 39.5 µM in [4]; greater than 100 µM in assay [5]; 2.31 µM in assay [6]. The TGI in assay [7] is greater than 100 µM; in [8], 13.8 µM; in assay [9], greater than 55.8 µM; in assay [10], greater than 30.4 µM.
Turning to `C1CSC[C@H]2COC[C@@H](CSCCS1)S2`, the TGI in assay [1], in assay [3], in assay [4], in assay [5], in assay [6] and in assay [7] was greater than 100 µM throughout. The TGI in assay [8] and in assay [9] was greater than 100 µM throughout.
`COc1cc(S(=O)(=O)Nc2nc(-c3ccc(N4C(=O)C(C)SC4c4ccccc4O)cc3)cs2)ccc1Cl` (stereo not given): the GI50 in [1] was 38 µM; in [2] it was 89.2 µM; in assay [3], 32.8 µM; in assay [4] it was 32.6 µM; in assay [5] it was 35.6 µM; in assay [6], 26 µM. The GI50 in [7] is 39.7 µM; in [8], 28 µM; in [9], 50.9 µM. Also, the TGI in assay [1], in [2], in assay [3], in assay [4], in assay [5] and in [6] was greater than 100 µM each time. The TGI in assay [7], in assay [8] and in assay [9] was greater than 100 µM in each case.
Turning to `COC1=C(OC)C(=O)C(C/C=C(\C)CC/C=C(\C)CC/C=C(\C)CC/C=C(\C)CC/C=C(\C)CC/C=C(\C)CC/C=C(\C)CC/C=C(\C)CC/C=C(\C)CCC=C(C)C)=C(C)C1=O`, the GI50 in assay [1], in assay [2], in [3], in [4], in assay [5] and in assay [6] was greater than 100 µM in each case. The GI50 in assay [7], in assay [8], in assay [9] and in assay [10] was greater than 100 µM in each case. Also, the TGI in assay [1], in assay [2], in assay [3], in assay [4], in assay [5] and in assay [6] was greater than 100 µM throughout. Also, the TGI in assay [7], in assay [8], in [9] and in assay [10] was greater than 100 µM in each case.
On to `CN1CCN(CCCOc2ccc3nc(Nc4ccc(F)c(F)c4)ccc3c2)CC1`, for which the GI50 in [1] is 1.26 µM; in [2] it was 1.15 µM; in [3] it was 1.76 µM; in assay [4], 1.63 µM; in assay [5], 2.11 µM; in [6] it was 1.47 µM. Besides, the GI50 is 2.19 µM in [7], 1.1 µM in assay [8], 3.4 µM in [9] and 3.11 µM in assay [10]. In addition, the TGI in assay [1] was found to be 4.2 µM; in assay [2], 3.06 µM; in assay [3], 3.27 µM; in [4], 3.57 µM; in assay [5], 6.37 µM; in assay [6], 2.88 µM. Further, the TGI in [7] came out at 5.26 µM; in [8] it was 3.6 µM; in assay [9], 14.7 µM; in assay [10], 9.01 µM.
For the compound `O=C1CC(c2cccc(Cl)c2)Oc2ccccc21` (stereo not given), the TGI is 57.1 µM in assay [1]; 32.2 µM in assay [3]; greater than 100 µM in assay [4]; 37.6 µM in assay [6]; 42.2 µM in assay [8]; 48.9 µM in assay [9]. The compound further registered a TGI in assay [10] of 50.7 µM.
In the case of `COc1cc(C)cc(C(=O)/C=C/c2ccccc2)c1O`, the TGI is greater than 100 µM in assay [1]; 37.7 µM in assay [3]; 47.9 µM in [4]; 47.8 µM in [5]; 40.4 µM in assay [6]; greater than 100 µM in [7]. The TGI came out at 31.2 µM in [8], 52 µM in assay [9] and 30.5 µM in assay [10].
As to `CC1CCCC(C#N)(NOC2=NCCN2)C1` (stereo not given), the GI50 was 16.8 µM in [1]; 97.5 µM in [3]; 19.4 µM in assay [4]; 43 µM in assay [5]; 14.9 µM in assay [6]; 63.4 µM in assay [7]. Further, the GI50 in assay [8] is 36.5 µM; in assay [9] it was greater than 100 µM; in assay [10], 30.4 µM. Also, the TGI is 93 µM in assay [1]; greater than 100 µM in assay [3]; greater than 100 µM in assay [4]; greater than 100 µM in assay [5]; 34.2 µM in assay [6]; greater than 100 µM in assay [7]. Further, the results for the TGI in assay [8], in assay [9] and in [10] were 75.1 µM, greater than 100 µM and greater than 100 µM, respectively.

Values taken from PubChem BioAssay (NCI).
